In patent US10842758B1, “Transdermal penetrant formulations containing cannabidiol” (AMPERSAND BIOPHARMACEUTICALS, INC., priority 2019, dated 2020):

Assay: Plasma pharmacokinetic profile of cannabidiol after a single topical dose (In-life Study 1901002-01, LC-MS/MS)
Format: in vivo, CD-1 mice
Conditions: CD-1, topical or ocular, single topical dose 0.1 mL, mouse plasma
Experimental: The objective of this study was to determine the plasma pharmacokinetic (PK) profile of test article cannabidiol (CBD) following the administration of a single topical dose to CD-1 mice. The work was conducted at Alliance Pharma with a title of In-life Study 1901002-01. Although the in-life study was not intended to be conducted in compliance with Good Laboratory Practice regulations, the study was conducted in accordance with Alliance Pharma's IACUC (Institutional Animal Care and Use Committee) Protocol No. 2016-02_V4 and Alliance Pharma's standard operating procedures (SOPs). In addition, the pharmacokinetic analyses of mouse plasma samples were conducted in accordance with Alliance Pharma SOPs.
A total of 72 mouse (CD-1) plasma samples were transferred from Alliance Pharma's in-life facility located in Malvern, Pa. to the Bioanalytical department for pharmacokinetic analysis. The concentration of CBD in these 72 plasma samples was measured using high-performance liquid chromatography (HPLC) with tandem mass spectrometry (MS/MS) detection.
Test Article: The dose gels for test article CBD were provided by Ampersand Biopharma dba Dyve Biosciences (Thousand Oakes, Calif.), prior to the start of this study and stored at room temperature.
In-life Study Design: In-life Study 1901002-01 was performed at the in-life testing facility at Alliance Pharma. Four (4) groups of 21 CD-1 mice each (84 total) were administered a single topical dose of CBD. Mice in Group 1 were administered Formulation A at a strength of 2.5% CBD. Mice in Group 2 were administered Formulation B at the same strength of 2.5% CBD. Mice in Group 3 were administered Formulation C at a strength of 5% CBD, and mice in Group 4 were administered Formulation C at a strength of 2.5% CBD. The treatment scheme is summarized below.
Animals in each group received topical administration of either 2.5% o 5% CBD using a 1 ml syringe to draw up exactly 100 μl. Compound was applied in the shaved area only. Each group received a different formulation of the compound.
Sample Collection, Processing, and Shipment: Blood samples were collected at the in-life facility at the following time points: 0.25, 0.5, 1, 2, 4, and 8 hours post-dose from 72 mice in Groups 1 through 4 (18 from each treatment group). Target volume was less than or equal to 0.2 ml. The blood was collected via trunk puncture into tubes using K2 EDTA as an anticoagulant. The collected blood samples were kept on wet ice before being centrifuged. Blood samples were centrifuged as soon as possible after blood collection at approximately 10,000 rpm for about 10 minutes to separate the plasma. Approximately 0.2 mL of each plasma sample was transferred into labeled Eppendorf tubes. Each tube was stored in a freezer set to −20° C. or lower. No blood was collected from 12 (3 from each treatment group) of the 84 mice enrolled in the in-life study; thus, the total number of plasma samples that were transferred to the Alliance Pharma Bioanalytical department for bioanalysis was 72.
Assay Procedures: For analysis of CBD, a 25-μL aliquot of each study sample was mixed with 25 μL of acetonitrile/water (50:50, v/v). Samples were then extracted by protein precipitation using acetonitrile containing the internal standard, tolbutamide (25 ng/mL). A portion of the supernatant was diluted in deionized water and used for the analysis of CBD.
Preparation of Standards and Quality Controls: Calibration standards of CBD mouse plasma samples were prepared in acetonitrile/water (50:50, v/v) at concentrations of 1, 2, 20, 200, 500, 1000, 1800, and 2000 ng/mL. The low quality control (LQC), medium quality control (MQC), and high quality control (HQC) were prepared in blank mouse plasma at concentrations of 3, 150, and 1500 ng/mL, respectively. A dilution quality control (DQC) was prepared at a concentration of 10,000 ng/mL and used in Batch 1.
Sample Analyses: Study samples were analyzed using a bioanalytical method qualified by Alliance Pharma. […]

[1] = Group 1: AEM.CBD.006 Formulation A 2.5% CBD, mean dose 78.69 mg/kg
[2] = Group 2: AEM.CBD.007 Formulation B 2.5% CBD, mean dose 76.61 mg/kg
[3] = Group 3: KBM.CBD.010 Formulation C 5% CBD, mean dose 155.24 mg/kg
[4] = Group 4: KBM.CBD.011 Formulation C 2.5% CBD, mean dose 75.76 mg/kg

Q: Which results are given for C=C(C)[C@@H]1CCC(C)=C[C@H]1c1c(O)cc(CCCCC)cc1O [Cannabidiol]?
A: AUC(0-inf) [1]: 1860 ng·h/mL; AUC(0-t) [1]: 1760 ng·h/mL; Cmax [1]: 427 ng/mL; Tmax [1]: 2 h; half-life [1]: 1.78 h; AUC(0-inf) [2]: 1650 ng·h/mL; AUC(0-t) [2]: 1560 ng·h/mL; Cmax [2]: 360 ng/mL; Tmax [2]: 2 h; half-life [2]: 1.7 h; AUC(0-inf) [3]: 3530 ng·h/mL; AUC(0-t) [3]: 3070 ng·h/mL; Cmax [3]: 602 ng/mL; Tmax [3]: 4 h; AUC(0-inf) [4]: 1510 ng·h/mL; AUC(0-t) [4]: 1410 ng·h/mL; Cmax [4]: 332 ng/mL; Tmax [4]: 1 h; half-life [4]: 1.92 h
